# Test results reported in patent US12109266B2, “Modulating gabarap to modulate immunogenic cell death” (Dana-Farber Cancer Institute, Inc., priority 2020, dated 2024).
# “Also recorded” adds a separate entry of the source.
# What was measured:
# 5TGM1 cells [1] = experiment: In vivo rechallenge of viable 5TGM1 cells in BTZ-treated mice; parameters: species or system mouse
# Method: (§1) C57BL/KaLwRijHsd mice bearing 5TGM1 WT tumors were treated with BTZ as above. 2 weeks after observation of tumor regression, treated (n=5) as well as naïve mice (n=5), were rechallenged with viable 1×10^6 5TGM1 WT cells, and tumor growth was monitored over time. In a parallel experiment, spleens were harvested 2 weeks after tumor rechallenge from both groups to test T cell specific reactivity against multiple myeloma cell by ELISPOT assay (Translational Immunogenomics Laboratory, DFCI).
# [2] = system: 5TGM1 multiple myeloma cell line; experiment: Apoptosis assay (Annexin-V/7-AAD flow cytometry); assay type: cell-based, murine
# Method: Apoptosis was evaluated by Annexin-V/7-Aminoactinomycin D (7-AAD) staining and flow cytometric analysis using the PE Annexin V Apoptosis Detection Kit I (BD Biosciences), following the manufacturer's instructions.
# Apoptosis was evaluated by Annexin-V/7-Aminoactinomycin D (7-AAD) staining and flow cytometric analysis using the PE Annexin V Apoptosis Detection Kit I (BD Biosciences).
# 5TGM1 cells [3] = experiment: Ex vivo IFN-gamma ELISPOT on splenocytes; assay type: in vivo, mouse; conditions: splenocytes of BTZ-treated, rechallenged mice
# Method: 5×10^5 5TGM1 WT or calrKO were treated with BTZ (7.5 nM) in vitro for 16 h. C57BL/KaLwRijHsd mice (n=8 per group) were then either vaccinated in the left flank with dying 5TGM1 WT, 5TGM1calrKO, 5TGM1 gabarapKO or not vaccinated. After 1 week, 1×10^6 WT 5TGM1 cells were injected in the contralateral flank and tumor growth was monitored over time. In a parallel experiment under the same conditions, spleens from mice were harvested 10 days after rechallenge and ELISPOT assay was performed to assess T cell specific reactivity against MM cells (Translational Immunogenomics Laboratory, DFCI).
# as §1
# [4] = system: patient-derived MM cells (pdMM); experiment: Phagocytosis assay of patient-derived MM cells by DCs; assay type: cell-based, human; conditions: BTZ 5 and 10 nM; 4 h co-culture
# Source text: Multiple myeloma patients BM aspirates and normal donor peripheral blood mononuclear cells (PBMCs) were obtained after written informed consent, in accordance with the declaration of Helsinki and under the approval by the Institutional Review Board of the Dana-Farber Cancer Institute. BMMCs and PBMCs were separated by Ficoll-Paque PLUS (GE Healthcare). Multiple myeloma cells from BMMCs were enriched by CD138-positive selection using magnetic microbeads (Miltenyi Biotec).
# Mo-DCs were generated from CD14+ peripheral blood monocytes from healthy donors, positively selected using magnetic beads (Miltenyi Biotec), cultured for 6 days in mo-DC differentiation medium containing GM-CSF and IL-4 (130-094-812; Miltenyi Biotec). AMO1 and NCI-H929 cells lines, as well as patient MM cells, were stained with CellTrace™ Far Red (ThermoFisher Scientific), cultured with or without BTZ for 16 h, and then incubated in 48-well plates for 4 h at 1:1 ratio with CellTrace™ CFSE stained Mo-DCs. Cells were then collected, and phagocytosis analysis was performed by flow cytometry and confocal microscopy. Analagous phagocytosis experiments were performed using 5TGM1 murine multiple myeloma and JAWSII cell line that was used as source of immature murine DCs.
# Flow cytometry-based assay: Collected cells were analyzed using the BD LRSFortessa X-20 flow cytometer. […]
# 5TGM1 tumors = experiment: In vivo tumor growth analysis; parameters: species or system mouse
# Method: 6-week old female immunodeficient NOD.CB17-Prkdcscid/NCrCrl (NOD/SCID) mice (Charles River) and immunocompetent C57BL/KaLwRijHsd (Envigo) mice were housed in an animal facility at the Dana-Farber Cancer Institute (DFCI). All experiments were performed after approval by the Animal Ethics Committee of the DFCI and performed using institutional guidelines.
# To assess the effect of BTZ in the absence of an immune system, NOD/SCID mice were subcutaneously injected with 1×10^6 5TGM1 WT cells in a 1:1 ratio with Matrigel® (Corning); to assess BTZ in an immunocompetent host, C57BL/KaLwRijHsd mice were injected with 1×10^6 5TGM1 either WT or calrKO in the same ratio with Matrigel®. When tumor became measurable, mice (5/group) were randomized to receive either PBS or BTZ administered intra peritoneally (i.p.) 0.5 mg/kg twice/week for 2 weeks. Tumor sizes were measured and mice were sacrificed when tumors reached 2 cm in diameter or ulceration or major compromise in quality of life. A parallel experiment was performed to allow for tumor harvesting after two injections i.p. of BTZ for RNA-seq analysis, as detailed below.
# 6-week old female immunodeficient NOD.CB17-Prkdcscid/NCrCrl (NOD/SCID) (Charles River) and immunocompetent C57BL/KaLwRijHsd (Envigo) mice were housed in the animal facility at DFCI. All experiments were performed after approval by the Animal Ethics Committee of the DFCI and performed using institutional guidelines.
# NOD/SCID and C57BL/KaLwRijHsd mice were subcutaneously (sc) injected with 1×10^6 5TGM1 either WT or Calr^KO cells in PBS. When tumor became measurable, mice were randomized to receive either PBS or BTZ administered intra peritoneally (i.p.) 0.5 mg/kg twice/week for 2 weeks. Tumor sizes were measured as previously described (46), and mice were sacrificed when tumors reached 2 cm in diameter or ulceration or major compromise in quality of life. A parallel experiment was performed to allow for tumor harvesting after two injections ip of BTZ for RNA-seq analysis, as detailed below. For BTZ and STING agonist combination studies, C57BL/KaLwRijHsd (n=5/group) and SCID/NOD (n=6/group) mice bearing 5TGM1 WT and C57BL/KaLwRijHsd mice (n=5/group) bearing 5TGM1 Sting^KO tumors were randomized to receive: PBS, BTZ (0.375 mg/kg twice a week for 2 weeks, i.p.), ADU-S100 (100 μg) administered in the peritumoral area (day 1 and 2), or a combination. Tumor sizes were measured as described above. A parallel experiment in C57BL/KaLwRijHsd mice was performed to allow for tumor harvesting after one administration of either BTZ or ADU-S100. Tumors were fixed in 10% formalin for 24 h, and then maintained in 70% ethanol prior to paraffin embedding and processing for IHC to detect CD3 (#nb600 Ab, Novus Bio).
smiles,measurement,setting,value
"CC(C)C[C@H](NC(=O)[C@H](Cc1ccccc1)NC(=O)c1cnccn1)B(O)O [BTZ, bortezomib]",mice alive at the end of observation,5TGM1 cells [1]; day 30 after rechallenge,100%
same,tumor development after rechallenge,5TGM1 cells [1]; live 5TGM1 WT injected two weeks after BTZ-induced tumor regression,did not result in tumor development
same,"multiple myeloma cell death, as measured by phosphatidylserine exposure","[2]; 5TGM1, BTZ 1-10 nM, 16 h",induced multiple myeloma cell death in a dose-dependent manner
same,apoptosis (annexin-V-positive cells),"[2]; 5TGM1 WT vs Calr^KO clones, BTZ 7.5 nM",triggered apoptosis in both 5TGM1 WT cells and the Calr^KO clones at the same extent
same,T cell reactivity against MM cells (IFN-gamma ELISPOT),5TGM1 cells [3],robust immune response against multiple myeloma cells; also recorded: generates a robust immune response against MM cells
same,phagocytosis of BTZ-treated pdMM cells by DCs,[4],dose-dependent increase in phagocytosis of BTZ-treated pdMM cells by DCs
same,tumor growth,"5TGM1 tumors; 5TGM1 Calr^KO tumors in immunocompetent mice, BTZ 0.5 mg/kg twice/week for 2 weeks",antagonized in CALR^KO tumors; also recorded: abrogated in mice bearing CRT^KO tumors; also recorded: abrogated in immunocompetent mice bearing 5TGM1 Calr^KO tumors
same,anti-tumor activity,5TGM1 tumors; 5TGM1 Sting^KO tumors in immunocompetent mice,significantly abrogated against tumors lacking Sting; also recorded: significantly reduced in vivo against multiple myeloma tumors lacking Sting
same,tumor growth,"5TGM1 tumors; 5TGM1 WT in immunocompetent C57BL/KaLwRij mice, BTZ 0.5 mg/kg twice/week for 2 weeks i.p.",induces tumor regression in the presence of the immune system; also recorded: more potent 5TGM1 tumor cell shrinkage in immunocompetent hosts; also recorded: inhibited growth of 5TGM1 WT cells engrafted in immunocompetent (C57BL/KaLwRij) mice (FIG. 19A) to a greater extent than when these cells were engrafted in immunodeficient hosts; also recorded: induces ICD in a syngeneic murine model of MM
same,anti-tumor effects,"5TGM1 tumors; 5TGM1 WT in immunodeficient NOD/SCID mice, BTZ 0.375 mg/kg, ADU-S100 100 ug day 1 and 2",abrogated the anti-tumor effects
same,tumor growth,"5TGM1 tumors; 5TGM1 WT in immunodeficient SCID/NOD mice, BTZ 0.5 mg/kg twice/week for 2 weeks i.p.",can efficiently delay tumor growth in immunodeficient mice
